Ten molecules from ChEMBL document CHEMBL1201862, “PubChem BioAssay data set” (2004) can be followed below.

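Protocol summary: plate cells (96-well), add compound at 5 concentrations, incubate 48 h, interpolate endpoints linearly. GI50 is the concentration that inhibits growth by half.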 Calls of active or inactive are those of the source. Rule as the data show it: active = GI50 up to about 1.1 µM and inactive = higher.

Some test systems named below: SR; SK-OV-3; NCI-H522; HCC 2998; UO-31; HL-60; NCI/ADR-RES; SNB-19; RXF 393; CAKI-1; SK-MEL-28; UACC-257; OVCAR-3; NCI-H226; A498; BT-549; SN12C; SW-620; SK-MEL-5; CCRF-CEM.
Assay in all cases: growth of human tumour cells (NCI), 48 h

For the molecule `O=[N+]([O-])c1ccc2c(c1)c1nn2CCCCOc2nn(c3ccc([N+](=O)[O-])cc23)CCCCO1`, the GI50 in the assay with SR, with SK-OV-3, in the assay on NCI-H522, in the assay on HCC 2998, with UO-31 and in the assay with HL-60 was > 100 µM (inactive) each time. In addition, the GI50 in the assay on NCI/ADR-RES, in the assay on SNB-19, in the assay with RXF 393, in the assay with CAKI-1, in the assay on SK-MEL-28 and in the assay on UACC-257 was > 100 µM (inactive) each time. Moreover, the GI50 with OVCAR-3, with NCI-H226, with A498, in the assay with BT-549 and with SN12C was > 100 µM (inactive) in each case.

On to `CC(C)(C)c1cc(/C=C(\C#N)C2=NCCO2)cc(C(C)(C)C)c1O`, for which the GI50 in the assay with SR is 2.92 µM (inactive); with SK-OV-3 it was 3.31 µM (inactive); with NCI-H522 it was 3.2 µM (inactive); in the assay with HCC 2998, 2.92 µM (inactive); in the assay on UO-31, 2.73 µM (inactive); in the assay on HL-60, 2.12 µM (inactive). Further, the GI50 with NCI/ADR-RES is 2.66 µM (inactive); with SNB-19, 4.43 µM (inactive); with RXF 393 it was 3.26 µM (inactive); in the assay with SW-620 it was 4.06 µM (inactive); with CAKI-1, 3.04 µM (inactive); in the assay on SK-MEL-28 it was 6.35 µM (inactive). Also, the GI50 in the assay on UACC-257 is 2.64 µM (inactive); in the assay with SK-MEL-5, 2.38 µM (inactive); with OVCAR-3, 2.17 µM (inactive); in the assay with NCI-H226, 5.4 µM (inactive); with CCRF-CEM, 2.4 µM (inactive); with A498 it was 3.84 µM (inactive). Besides, the GI50 in the assay on BT-549 is 3.43 µM (inactive); with SN12C, 2.94 µM (inactive).

Regarding `CN(C)Cc1cc(/N=N/c2cccc(Cl)c2)ccc1O`, the GI50 is 20.1 µM (inactive) with SR; 19.9 µM (inactive) in the assay with SK-OV-3; 11.7 µM (inactive) in the assay on NCI-H522; 14.3 µM (inactive) in the assay on HCC 2998; 8.32 µM (inactive) with UO-31; 17.3 µM (inactive) in the assay with HL-60. The GI50 is 5.05 µM (inactive) in the assay on NCI/ADR-RES; 18.8 µM (inactive) with SNB-19; 1.99 µM (inactive) in the assay with RXF 393; 10.7 µM (inactive) with SW-620; 21.2 µM (inactive) with CAKI-1; 13.6 µM (inactive) in the assay on SK-MEL-28. The GI50 in the assay with UACC-257 was 14.5 µM (inactive); in the assay on SK-MEL-5 it was 3.4 µM (inactive); in the assay on OVCAR-3, 13.6 µM (inactive); with NCI-H226, 17.4 µM (inactive); in the assay with CCRF-CEM, 15.8 µM (inactive); in the assay on A498, 10.9 µM (inactive). Further, the GI50 in the assay with BT-549 is 15.9 µM (inactive); in the assay on SN12C, 28.6 µM (inactive).

With `Cc1cc(N(CCOS(C)(=O)=O)CCOS(C)(=O)=O)ccc1/C=N/c1ccc(-c2csc(-c3ccc(Br)cc3)n2)cc1`, the GI50 was 1.7 µM (inactive) in the assay on SR; 1.98 µM (inactive) with SK-OV-3; 0.8 µM (active) with NCI-H522; 6.58 µM (inactive) in the assay with HCC 2998; 10.2 µM (inactive) with UO-31; 2.58 µM (inactive) in the assay on HL-60. In addition, the GI50 was 15.1 µM (inactive) in the assay on NCI/ADR-RES; 19.4 µM (inactive) in the assay on SNB-19; 1.78 µM (inactive) with RXF 393; 15.6 µM (inactive) in the assay with SW-620; 0.285 µM (active) in the assay with CAKI-1; 31.2 µM (inactive) in the assay on SK-MEL-28. Further, the GI50 with UACC-257 was 18.9 µM (inactive); in the assay with SK-MEL-5, 14.2 µM (inactive); with OVCAR-3 it was 10.3 µM (inactive); with NCI-H226 it was 12.6 µM (inactive); in the assay with CCRF-CEM it was 1.12 µM (inactive); in the assay on A498, 2.11 µM (inactive). For the same molecule, the GI50 was 20.5 µM (inactive) in the assay with BT-549 and 10.7 µM (inactive) with SN12C.

Consider `CSc1ccc(-c2cc(-c3nc4ccccc4[nH]3)nc(N)c2C#N)cc1`, for which the GI50 was 13.1 µM (inactive) in the assay with SR; 33 µM (inactive) with SK-OV-3; 16.1 µM (inactive) with NCI-H522; 17.1 µM (inactive) with HCC 2998; 20 µM (inactive) with HL-60; 31.3 µM (inactive) in the assay with NCI/ADR-RES. The GI50 in the assay with SNB-19 was 25.2 µM (inactive); in the assay with RXF 393, 2.58 µM (inactive); in the assay on SW-620, 31.3 µM (inactive); in the assay with CAKI-1, 18.3 µM (inactive); in the assay with SK-MEL-28, 20.2 µM (inactive); with UACC-257 it was 18.5 µM (inactive). Besides, the GI50 is 13.3 µM (inactive) in the assay with SK-MEL-5; 16.5 µM (inactive) in the assay on OVCAR-3; 21.3 µM (inactive) in the assay on NCI-H226; 13.3 µM (inactive) in the assay with CCRF-CEM; 15 µM (inactive) in the assay on A498; 20.6 µM (inactive) in the assay with BT-549. Moreover, the GI50 in the assay on SN12C was 25.8 µM (inactive).

With `Cn1cnc2c(NCc3ccccc3)nc(NCCO)nc21` [OLOMOUCINE], the GI50 is 29.7 µM (inactive) in the assay with SR; > 95.5 µM (inactive) with SK-OV-3; 51.4 µM (inactive) with NCI-H522; 79.1 µM (inactive) in the assay on HCC 2998; 31.4 µM (inactive) in the assay with UO-31; 36.9 µM (inactive) with HL-60. In addition, the GI50 is > 93.8 µM (inactive) in the assay with NCI/ADR-RES; 48.6 µM (inactive) with SNB-19; 67 µM (inactive) in the assay on RXF 393; 43.5 µM (inactive) in the assay with SW-620; 33.7 µM (inactive) with CAKI-1; 52.8 µM (inactive) with SK-MEL-28. The GI50 in the assay with UACC-257 is > 95.3 µM (inactive); in the assay with SK-MEL-5, 40.6 µM (inactive); in the assay with NCI-H226, 51.3 µM (inactive); in the assay with CCRF-CEM it was 54.6 µM (inactive); in the assay with A498, 103 µM (inactive); in the assay on BT-549, 53.1 µM (inactive). The GI50 in the assay on SN12C is 90.2 µM (inactive).

As for `O=C1O/C(=C\c2ccc(O)c(Br)c2)C(c2ccc(O)c(Cl)c2)=C1Br`, the GI50 with SR was 5.86 µM (inactive); with SK-OV-3, 18 µM (inactive); with NCI-H522 it was 14.4 µM (inactive); in the assay with HCC 2998 it was 3.65 µM (inactive); with UO-31 it was 25.7 µM (inactive); with HL-60 it was 20 µM (inactive). Moreover, the GI50 is 19.9 µM (inactive) with NCI/ADR-RES; 18.3 µM (inactive) in the assay with SNB-19; 17.2 µM (inactive) in the assay on RXF 393; 17.3 µM (inactive) with SW-620; 27 µM (inactive) with CAKI-1; 16.3 µM (inactive) in the assay with SK-MEL-28. Also, the GI50 in the assay on UACC-257 is 15.8 µM (inactive); in the assay on SK-MEL-5, 14.8 µM (inactive); in the assay with OVCAR-3, 17.8 µM (inactive); with CCRF-CEM it was 12.3 µM (inactive); in the assay with A498, 19.5 µM (inactive); in the assay with BT-549, 17.9 µM (inactive). Further, the GI50 with SN12C is 25.8 µM (inactive).

Turning to `Cc1cc(C)c2c(=O)n(CN3CCC(O)(c4ccccc4)CC3)sc2n1`, the GI50 in the assay with SR is 29.9 µM (inactive); in the assay on SK-OV-3, > 100 µM (inactive); with NCI-H522, 11.8 µM (inactive); in the assay on HCC 2998, 27.4 µM (inactive); in the assay with UO-31 it was 17.2 µM (inactive); in the assay with HL-60, 20 µM (inactive). For the same molecule, the GI50 was 53.1 µM (inactive) with NCI/ADR-RES; > 100 µM (inactive) with SNB-19; 19.8 µM (inactive) in the assay with RXF 393; 26.8 µM (inactive) in the assay with SW-620; 43.5 µM (inactive) in the assay with CAKI-1; 56.2 µM (inactive) with SK-MEL-28. Besides, the GI50 is 97.3 µM (inactive) in the assay on SK-MEL-5; 38.4 µM (inactive) in the assay with OVCAR-3; > 100 µM (inactive) with NCI-H226; 19.4 µM (inactive) in the assay on CCRF-CEM; 78.3 µM (inactive) in the assay with A498; 97.3 µM (inactive) in the assay with BT-549. The GI50 in the assay with SN12C is 25.7 µM (inactive).

Turning to `Cc1ccc(S(=O)(=O)n2cc(C=O)c(-c3cn(S(=O)(=O)c4ccc(C)cc4)cc3-c3cn(S(=O)(=O)c4ccc(C)cc4)cc3C=O)c2)cc1`, the GI50 in the assay on SR is 13.6 µM (inactive); with SK-OV-3 it was > 100 µM (inactive); with NCI-H522, 26.9 µM (inactive); in the assay on HCC 2998, > 100 µM (inactive); with UO-31 it was 52.6 µM (inactive); in the assay with HL-60, 25.4 µM (inactive). The GI50 in the assay with NCI/ADR-RES is > 100 µM (inactive); with SNB-19, 50.2 µM (inactive); in the assay on RXF 393 it was 29.5 µM (inactive); in the assay with SW-620 it was 45.1 µM (inactive); in the assay on CAKI-1, > 100 µM (inactive); with UACC-257, 54.1 µM (inactive). Also, the GI50 with SK-MEL-5 was 41.6 µM (inactive); in the assay on OVCAR-3, 78.9 µM (inactive); in the assay with NCI-H226 it was 29.6 µM (inactive); with CCRF-CEM, 17.9 µM (inactive); with A498 it was > 100 µM (inactive); with BT-549, 60.1 µM (inactive). Moreover, the GI50 in the assay with SN12C is > 100 µM (inactive).

With `Cc1c(C)c2c(c(N)c1C#N)C(=O)N(NC(=O)c1ccccc1)C2=O`, the GI50 in the assay on SR was > 100 µM (inactive); in the assay on NCI-H522, > 100 µM (inactive); in the assay with HCC 2998, > 100 µM (inactive); in the assay with UO-31, 36.1 µM (inactive); with HL-60 it was > 100 µM (inactive); in the assay with NCI/ADR-RES, > 100 µM (inactive). The GI50 in the assay with SNB-19, with RXF 393, in the assay on SW-620, in the assay on CAKI-1, with SK-MEL-28 and in the assay with UACC-257 was > 100 µM (inactive) in each case. In addition, the GI50 with SK-MEL-5, in the assay with OVCAR-3, in the assay on NCI-H226, in the assay on CCRF-CEM, in the assay with A498 and in the assay with BT-549 was > 100 µM (inactive) throughout. The GI50 in the assay on SN12C was > 100 µM (inactive).
